Tested on: monkey
Assay: EEG effects of drugs delivered through the implanted subdural/subarachnoid sheet body in a monkey
Assay type: in vivo
Details: acetylcholine-induced EEG seizure, delivery through the sheet body over right frontal cortex (FIG. 8)
Procedure: In this experiment, drugs with known pharmacological actions were delivered through the sheet body 102 to test whether the inlet and outlet ports 112, 114 were clogged or obstructed, with the effects of the administered drugs monitored via EEG electrode contacts 113 integrated into the sheet body 102. The experiment was performed in a monkey approximately three months after the implantation of the sheet body 102 over the animal's right frontal cortex and the implantation of the control unit 130. During this post-surgical period, the delivery fluid was saline. On the day of this experiment, the mini-pump was temporarily modified to deliver a seizure-inducing agent (acetylcholine) through the sheet body 102, followed by a delivery of an antiepileptic drug (muscimol) through the same route. Traces 1 to 3 of FIG. 6 represent EEG recordings obtained with the EEG electrodes integrated into the subarachnoid sheet (ipsilateral recording channels 1, 2 and 3). The fourth trace of FIG. 6 was obtained from a subdural/subarachnoid electrode placed, during device implantation, in the left-side frontal cortex (contralateral recording channel).

NCc1cc(=O)[nH]o1 [muscimol]
time to stop of EEG seizure after delivery: ≤ 2 min

From patent US9233237B2, “Apparatus and method for periodic fluid-delivery/fluid-removal cycles in the cranial subarachnoid space to treat cerebral cortical disorders” (NEW YORK UNIVERSITY, priority 2010, dated 2016)
